This passage reports IC50 results from US20250368649A1, “TETRAHYDROPYRIDOPYRIMIDINE PAN-KRAS INHIBITORS” (Mirati Therapeutics, Inc., priority 2022, published 2025).

One test concerns the target KRas WT (Homo sapiens, UniProt P01116). Kind of test: KRas binding assay (TR-FRET displacement), KRas WT. The settings on record: TR-FRET displacement. (In general: TR-FRET usually uses a lanthanide donor and a delayed reading to cut background.)
In the next test the target is KRas G12A (Homo sapiens, UniProt P01116, G12A). The format is binding. The settings on record: TR-FRET displacement, read-out: Binding to KRas (IC50 nM) G12A.
The next test deals with KRas G12D (Homo sapiens, UniProt P01116, G12D). Kind of test: biochemical. To be noted: Binding to KRas (IC50 nM) G12D, TR-FRET displacement, KRas G12D.
Another test has as its target KRas Q61H (Homo sapiens, UniProt P01116, Q61H). Kind of test: KRas binding assay (TR-FRET displacement), KRas Q61H. To be noted: TR-FRET displacement.
Another test concerns the target KRas G12S (Homo sapiens, UniProt P01116, G12S). The format is binding. To be noted: TR-FRET displacement, read-out: Binding to KRas (IC50 nM) G12S.
In the next test the target is KRas G12C (Homo sapiens, UniProt P01116, G12C). Format: binding. The settings on record: TR-FRET displacement, read-out: Binding to KRas (IC50 nM) G12C.
The next test deals with KRas G12V (Homo sapiens, UniProt P01116, G12V). The experiment in a line: biochemical. To be noted: Binding to KRas (IC50 nM) G12V, TR-FRET displacement, KRas G12V.
The target of the next test is KRas G13D (Homo sapiens, UniProt P01116, G13D). Format: binding. To be noted: TR-FRET displacement, read-out: Binding to KRas (IC50 nM) G13D.
Chain of KRas G13D (P01116 1-169 isoform P01116-2 G13D): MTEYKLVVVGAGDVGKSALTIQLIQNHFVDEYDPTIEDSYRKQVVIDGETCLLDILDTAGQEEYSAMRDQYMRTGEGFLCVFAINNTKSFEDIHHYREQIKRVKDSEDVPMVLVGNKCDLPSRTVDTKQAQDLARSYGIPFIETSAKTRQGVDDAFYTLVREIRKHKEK

Chain of KRas G12S (P01116 1-169 isoform P01116-2 G12S): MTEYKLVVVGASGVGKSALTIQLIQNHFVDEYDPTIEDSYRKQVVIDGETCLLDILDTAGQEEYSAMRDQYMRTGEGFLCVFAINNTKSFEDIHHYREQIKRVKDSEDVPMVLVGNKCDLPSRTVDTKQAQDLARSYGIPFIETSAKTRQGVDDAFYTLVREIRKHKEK
Chain of KRas G12V (P01116 1-169 isoform P01116-2 G12V): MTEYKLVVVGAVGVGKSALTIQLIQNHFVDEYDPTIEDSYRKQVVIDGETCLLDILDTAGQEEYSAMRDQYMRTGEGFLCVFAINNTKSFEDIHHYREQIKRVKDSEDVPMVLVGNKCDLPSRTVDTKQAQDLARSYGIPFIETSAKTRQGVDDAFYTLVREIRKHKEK
Chain of KRas G12D (P01116 1-169 isoform P01116-2 G12D): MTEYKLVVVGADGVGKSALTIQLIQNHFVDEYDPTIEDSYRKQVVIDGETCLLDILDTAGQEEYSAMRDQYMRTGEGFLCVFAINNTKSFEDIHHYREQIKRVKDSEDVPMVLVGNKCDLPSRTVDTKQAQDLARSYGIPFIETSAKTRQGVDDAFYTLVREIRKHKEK
Chain of KRas Q61H (P01116 1-169 isoform P01116-2 Q61H): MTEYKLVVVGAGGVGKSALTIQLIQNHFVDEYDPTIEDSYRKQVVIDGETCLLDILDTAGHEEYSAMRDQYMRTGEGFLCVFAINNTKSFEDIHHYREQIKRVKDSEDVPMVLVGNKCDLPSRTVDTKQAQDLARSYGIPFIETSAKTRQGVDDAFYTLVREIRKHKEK
Chain of KRas WT (P01116 1-169 isoform P01116-2): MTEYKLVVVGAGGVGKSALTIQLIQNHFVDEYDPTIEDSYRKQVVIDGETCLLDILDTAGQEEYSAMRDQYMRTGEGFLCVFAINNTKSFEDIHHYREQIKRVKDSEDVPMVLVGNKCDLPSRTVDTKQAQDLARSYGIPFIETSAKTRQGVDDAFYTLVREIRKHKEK
Chain of KRas G12C (P01116 1-169 isoform P01116-2 G12C): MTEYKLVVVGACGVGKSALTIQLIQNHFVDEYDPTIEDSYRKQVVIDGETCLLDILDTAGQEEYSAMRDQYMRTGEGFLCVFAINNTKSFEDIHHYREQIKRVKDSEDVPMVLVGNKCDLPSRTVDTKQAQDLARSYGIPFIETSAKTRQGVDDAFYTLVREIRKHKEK
Chain of KRas G12A (P01116 1-169 isoform P01116-2 G12A): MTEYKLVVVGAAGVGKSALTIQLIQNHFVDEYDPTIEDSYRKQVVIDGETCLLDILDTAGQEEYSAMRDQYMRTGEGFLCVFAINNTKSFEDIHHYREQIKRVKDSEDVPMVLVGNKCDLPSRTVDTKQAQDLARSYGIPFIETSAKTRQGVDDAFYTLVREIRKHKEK

Consider `CCc1cccc2cccc(N3CCc4c(nc(OCC5(CN(C)C)CC5)nc4NCc4nnc5c(Cl)cccn45)C3)c12` [Example 563, N-((8-chloro-[1,2,4]triazolo[4,3-a]pyridin-3-yl)methyl)-2-((1-((dimethylamino)methyl)cyclopropyl)methoxy)-7-(8-ethylnaphthalen-1-yl)-5,6,7,8-tetrahydropyrido[3,4-d]pyrimidin-4-amine], for which the IC50 on KRas WT turned out to be 776 nM; on KRas G12A it was 1370 nM; at KRas G12D, 30500 nM; on KRas Q61H it was 231 nM; at KRas G12S, 320 nM; on KRas G12C it was 697 nM. The values for the IC50 on KRas G12V and at KRas G13D were 6510 nM and 1040 nM, respectively.

Consider `CCc1cccc2cccc(N3CCc4c(nc(OCC5(CN(C)C)CC5)nc4N4CCN(c5nc(O)cs5)CC4)C3)c12` [Example 564, 2-(4-(2-((1-((dimethylamino)methyl)cyclopropyl)methoxy)-7-(8-ethylnaphthalen-1-yl)-5,6,7,8-tetrahydropyrido[3,4-d]pyrimidin-4-yl)piperazin-1-yl)thiazol-4-ol], for which the IC50 on KRas WT came to 6920 nM; at KRas G12A it was 11600 nM; at KRas G12D it was 29500 nM; at KRas Q61H, 4380 nM; at KRas G12S, 14200 nM; at KRas G12C it was 8580 nM. Moreover, the figures for the IC50 at KRas G12V and at KRas G13D were 3710 nM and 7400 nM, respectively.

Regarding `CCc1cccc2cccc(N3CCc4c(nc(OCC5(CN(C)C)CC5)nc4NCCc4cc(Br)no4)C3)c12` [Example 565, N-(2-(3-bromoisoxazol-5-yl)ethyl)-2-((1-((dimethylamino)methyl)cyclopropyl)methoxy)-7-(8-ethylnaphthalen-1-yl)-5,6,7,8-tetrahydropyrido[3,4-d]pyrimidin-4-amine], the IC50 is 13000 nM on KRas WT; 12200 nM at KRas G12A; 34300 nM on KRas G12D; 34400 nM at KRas Q61H; 12900 nM at KRas G12S; 8620 nM on KRas G12C. Moreover, the IC50 was 6620 nM at KRas G12V and 18900 nM on KRas G13D.

As for `CCc1cccc2cccc(N3CCc4c(nc(OCC5(CN(C)C)CC5)nc4N4CCOC(c5noc(C6CC6)n5)C4)C3)c12` (centres unmarked) [Example 566, 1-(1-(((4-(2-(5-cyclopropyl-1,2,4-oxadiazol-3-yl)morpholino)-7-(8-ethylnaphthalen-1-yl)-5,6,7,8-tetrahydropyrido[3,4-d]pyrimidin-2-yl)oxy)methyl)cyclopropyl)-N,N-dimethylmethanamine], the IC50 is 8780 nM on KRas WT; 7990 nM on KRas G12A; 35600 nM on KRas G12D; 15200 nM at KRas Q61H; 8690 nM on KRas G12S; 3760 nM at KRas G12C. The IC50 was found to be 5700 nM on KRas G12V and 15300 nM on KRas G13D.

`CCc1cccc2cccc(N3CCc4c(nc(OCC5(CN(C)C)CC5)nc4NCc4cc(C5CC5)nn4C)C3)c12` [Example 567, N-((3-cyclopropyl-1-methyl-1H-pyrazol-5-yl)methyl)-2-((1-((dimethylamino)methyl)cyclopropyl)methoxy)-7-(8-ethylnaphthalen-1-yl)-5,6,7,8-tetrahydropyrido[3,4-d]pyrimidin-4-amine]: the IC50 at KRas WT was 11600 nM; at KRas G12A it was 6050 nM; on KRas G12D, 37600 nM; at KRas Q61H, 9550 nM; on KRas G12S, 4330 nM; on KRas G12C, 3470 nM. The IC50 at KRas G12V came to 5760 nM; on KRas G13D it was 11800 nM.

For the compound `CCc1cccc2cccc(N3CCc4c(nc(OCC5(CN(C)C)CC5)nc4NCCc4ncc(F)cc4F)C3)c12` [Example 568, N-(2-(3,5-difluoropyridin-2-yl)ethyl)-2-((1-((dimethylamino)methyl)cyclopropyl)methoxy)-7-(8-ethylnaphthalen-1-yl)-5,6,7,8-tetrahydropyrido[3,4-d]pyrimidin-4-amine], the IC50 on KRas WT was found to be 15700 nM; at KRas G12A it was 13400 nM; on KRas G12D it was 39100 nM; on KRas Q61H, 15300 nM; at KRas G12S, 13600 nM; on KRas G12C it was 7900 nM. Also, the IC50 on KRas G12V turned out to be 5210 nM; on KRas G13D it was 19800 nM.

`CCc1cccc2cccc(N3CCc4c(nc(OCC5(CN(C)C)CC5)nc4NCC4(c5ccccc5)CCC(=O)N4)C3)c12` (centres unmarked) [Example 569, 5-(((2-((1-((dimethylamino)methyl)cyclopropyl)methoxy)-7-(8-ethylnaphthalen-1-yl)-5,6,7,8-tetrahydropyrido[3,4-d]pyrimidin-4-yl)amino)methyl)-5-phenylpyrrolidin-2-one]: the IC50 was 12200 nM on KRas WT; 10800 nM at KRas G12A; 41500 nM at KRas G12D; 10500 nM at KRas Q61H; 8590 nM at KRas G12S; 7220 nM on KRas G12C. In addition, the IC50 turned out to be 4610 nM at KRas G12V and 16900 nM at KRas G13D.

For the compound `CCc1cccc2cccc(N3CCc4c(nc(OCC5(CN(C)C)CC5)nc4NCCc4nnc5n4CCC5)C3)c12` [Example 570, N-(2-(6,7-dihydro-5H-pyrrolo[2,1-c][1,2,4]triazol-3-yl)ethyl)-2-((1-((dimethylamino)methyl)cyclopropyl)methoxy)-7-(8-ethylnaphthalen-1-yl)-5,6,7,8-tetrahydropyrido[3,4-d]pyrimidin-4-amine], the IC50 at KRas WT came to 99 nM; on KRas G12A, 134 nM; on KRas G12D it was 39000 nM; at KRas Q61H, 37 nM; at KRas G12S it was 58 nM; at KRas G12C it was 74 nM. Besides, the IC50 on KRas G12V is 13700 nM; at KRas G13D, 72 nM.

For the compound `CCc1cccc2cccc(N3CCc4c(nc(OCC5(CN(C)C)CC5)nc4NCc4cnnn4C)C3)c12` [Example 662, 2-((1-((dimethylamino)methyl)cyclopropyl)methoxy)-7-(8-ethylnaphthalen-1-yl)-N-((1-methyl-1H-1,2,3-triazol-5-yl)methyl)-5,6,7,8-tetrahydropyrido[3,4-d]pyrimidin-4-amine], the half-inhibitory concentration (IC50) at KRas WT worked out at 10300 nM; at KRas G12A, 9520 nM; at KRas G12D, 14400 nM; at KRas Q61H it was 10500 nM; at KRas G12S, 10100 nM; on KRas G12C, 5470 nM. For the same compound, the IC50 on KRas G12V was determined as 4040 nM; at KRas G13D, 13600 nM.

For `CCc1cccc2cccc(N3CCc4c(nc(OCC5(CN(C)C)CC5)nc4N4CCn5nncc5C4)C3)c12` [Example 665, 1-(1-(((4-(6,7-dihydro-[1,2,3]triazolo[1,5-a]pyrazin-5(4H)-yl)-7-(8-ethylnaphthalen-1-yl)-5,6,7,8-tetrahydropyrido[3,4-d]pyrimidin-2-yl)oxy)methyl)cyclopropyl)-N,N-dimethylmethanamine], the IC50 was 87600 nM at KRas WT; 83100 nM on KRas G12A; 6840 nM on KRas G12D; over 100000 nM at KRas Q61H; 62800 nM at KRas G12S; 37800 nM at KRas G12C. The results for the IC50 at KRas G12V and on KRas G13D were 10800 nM and over 100000 nM, respectively.

Consider `CCc1cccc2cccc(N3CCc4c(nc(OCC5(CN(C)C)CC5)nc4NCCc4sc(N)nc4C)C3)c12` [Example 670, 5-(2-((2-((1-((dimethylamino)methyl)cyclopropyl)methoxy)-7-(8-ethylnaphthalen-1-yl)-5,6,7,8-tetrahydropyrido[3,4-d]pyrimidin-4-yl)amino)ethyl)-4-methylthiazol-2-amine], for which the IC50 on KRas WT turned out to be 1960 nM; at KRas G12A, 1880 nM; on KRas G12D it was 9750 nM; on KRas Q61H, 2030 nM; on KRas G12S it was 1980 nM; on KRas G12C, 602 nM. Further, the results for the IC50 at KRas G12V and at KRas G13D were 1540 nM and 1970 nM, respectively.

As for `CCc1cccc2cccc(N3CCc4c(nc(OCC5(CN(C)C)CC5)nc4NCCc4nnc(N)o4)C3)c12` [Example 671, 5-(2-((2-((1-((dimethylamino)methyl)cyclopropyl)methoxy)-7-(8-ethylnaphthalen-1-yl)-5,6,7,8-tetrahydropyrido[3,4-d]pyrimidin-4-yl)amino)ethyl)-1,3,4-oxadiazol-2-amine], the IC50 at KRas WT stood at 23900 nM; at KRas G12A it was 10200 nM; at KRas G12D, 11800 nM; at KRas Q61H, 30200 nM; at KRas G12S, 16500 nM; at KRas G12C, 5240 nM. The figures for the IC50 on KRas G12V and on KRas G13D were 1980 nM and 33000 nM, respectively.

For the compound `CCc1cccc2cccc(N3CCc4c(nc(OCC5(CN(C)C)CC5)nc4NC4CN(c5nncs5)C4)C3)c12` [Example 674, N-(1-(1,3,4-thiadiazol-2-yl)azetidin-3-yl)-2-((1-((dimethylamino)methyl)cyclopropyl)methoxy)-7-(8-ethylnaphthalen-1-yl)-5,6,7,8-tetrahydropyrido[3,4-d]pyrimidin-4-amine], the IC50 came out at 3490 nM on KRas WT; 3970 nM at KRas G12A; 1410 nM on KRas G12D; 3960 nM on KRas Q61H; 3700 nM at KRas G12S; 2030 nM at KRas G12C. Also, the figures for the IC50 at KRas G12V and at KRas G13D were 1250 nM and 4050 nM, respectively.

Broadly, the IC50 is the concentration that inhibits the measured activity by half.
